Results on 1 molecule are retold here after ChEMBL document CHEMBL6182889, “Discovery of the first-in-class DOT1L PROTAC degrader” (Eur J Med Chem, 2025).

As usually defined, the DC50 is the midpoint of the concentration-degradation curve.

Series [1] addresses T1, von Hippel-Lindau disease tumor suppressor/Histone-lysine N-methyltransferase, H3 lysine-79 specific (Homo sapiens, UniProt Q8TEK3+P40337). In words: PROTAC activity at VHL/DOT1L in mixed-lineage leukemia rearranged (MLL-r) human MV4-11 cells assessed as induction of DOT1L degradation incubated for 24 hrs by western blot analysis. In kind it is cell-based. For orientation: A western blot detects proteins with antibodies after separation by electrophoresis.

Series [2] addresses T1, von Hippel-Lindau disease tumor suppressor/Histone-lysine N-methyltransferase, H3 lysine-79 specific. The series is described as follows: PROTAC activity at VHL/DOT1L in mixed-lineage leukemia rearranged (MLL-r) human MV4-11 cells assessed as maximal induction of DOT1L degradation incubated for 24 hrs by western blot analysis relative to control. In kind it is cell-based.
Target sequence in this assay (P40337 whole entry, looked up): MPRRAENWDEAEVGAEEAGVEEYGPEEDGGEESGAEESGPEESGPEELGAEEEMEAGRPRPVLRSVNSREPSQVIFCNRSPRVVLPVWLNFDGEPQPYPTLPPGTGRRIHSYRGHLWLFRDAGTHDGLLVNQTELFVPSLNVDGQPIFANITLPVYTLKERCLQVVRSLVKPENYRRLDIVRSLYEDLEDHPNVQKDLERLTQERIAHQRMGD
Target sequence in this assay (Q8TEK3 whole entry, looked up): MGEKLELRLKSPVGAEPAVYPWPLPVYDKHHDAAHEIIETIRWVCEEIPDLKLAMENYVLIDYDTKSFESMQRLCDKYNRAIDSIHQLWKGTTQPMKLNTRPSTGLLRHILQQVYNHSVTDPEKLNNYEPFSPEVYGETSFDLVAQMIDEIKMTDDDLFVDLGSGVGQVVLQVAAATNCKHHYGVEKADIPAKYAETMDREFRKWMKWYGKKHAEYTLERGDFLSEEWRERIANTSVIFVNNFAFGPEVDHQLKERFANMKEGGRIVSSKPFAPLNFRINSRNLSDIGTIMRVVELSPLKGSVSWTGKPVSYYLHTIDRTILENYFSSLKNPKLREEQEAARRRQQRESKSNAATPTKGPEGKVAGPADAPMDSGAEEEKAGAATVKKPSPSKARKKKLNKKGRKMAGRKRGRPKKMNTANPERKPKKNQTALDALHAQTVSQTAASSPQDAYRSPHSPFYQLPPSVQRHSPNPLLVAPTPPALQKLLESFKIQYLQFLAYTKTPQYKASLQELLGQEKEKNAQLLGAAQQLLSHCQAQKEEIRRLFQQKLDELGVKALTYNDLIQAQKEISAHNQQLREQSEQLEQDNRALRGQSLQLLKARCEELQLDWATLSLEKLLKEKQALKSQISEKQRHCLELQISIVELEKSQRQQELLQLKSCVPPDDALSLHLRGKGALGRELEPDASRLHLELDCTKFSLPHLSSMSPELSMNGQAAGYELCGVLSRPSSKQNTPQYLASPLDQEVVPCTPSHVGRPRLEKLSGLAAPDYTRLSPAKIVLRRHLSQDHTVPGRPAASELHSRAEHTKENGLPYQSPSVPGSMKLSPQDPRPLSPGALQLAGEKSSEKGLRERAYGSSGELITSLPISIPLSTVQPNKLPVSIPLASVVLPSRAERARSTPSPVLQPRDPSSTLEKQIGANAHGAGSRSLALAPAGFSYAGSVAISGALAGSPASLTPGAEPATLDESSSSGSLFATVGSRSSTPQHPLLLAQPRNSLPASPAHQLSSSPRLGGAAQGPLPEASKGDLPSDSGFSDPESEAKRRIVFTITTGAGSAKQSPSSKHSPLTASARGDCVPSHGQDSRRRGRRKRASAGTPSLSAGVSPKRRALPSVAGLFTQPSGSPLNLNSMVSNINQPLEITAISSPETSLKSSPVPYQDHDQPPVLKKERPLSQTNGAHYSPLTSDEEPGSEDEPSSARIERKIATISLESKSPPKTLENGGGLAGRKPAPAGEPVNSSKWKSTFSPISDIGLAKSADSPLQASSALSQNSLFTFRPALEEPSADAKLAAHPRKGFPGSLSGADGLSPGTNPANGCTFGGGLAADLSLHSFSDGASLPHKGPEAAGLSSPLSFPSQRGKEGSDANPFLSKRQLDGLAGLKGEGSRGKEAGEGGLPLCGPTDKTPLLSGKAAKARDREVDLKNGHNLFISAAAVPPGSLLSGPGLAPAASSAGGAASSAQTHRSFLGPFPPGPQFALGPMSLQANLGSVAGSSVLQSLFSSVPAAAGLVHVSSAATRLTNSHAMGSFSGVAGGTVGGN

The target is the same in series [3]. The series is described as follows: PROTAC activity at VHL/DOT1L in mixed-lineage leukemia rearranged (MLL-r) human THP-1 cells assessed as induction of DOTIL degradation by measuring fold change in DOT1L protein level at 3 uM incubated for 8 hrs by western blot analysis relative to control. In kind it is cell-based.
Target sequence in this assay (P40337 whole entry, looked up): as the sequence (P40337 whole entry, looked up) above
Target sequence in this assay (Q8TEK3 whole entry, looked up): as the sequence (Q8TEK3 whole entry, looked up) above
Series [4] has the same target. The series is described as follows: PROTAC activity at VHL/DOT1L in mixed-lineage leukemia rearranged (MLL-r) human THP-1 cells assessed as induction of DOTIL degradation by measuring fold change in H3K79Me2 level at 3 uM incubated for 1 hr by western blot analysis relative to control. The format is cell-based.
Target sequence in this assay (P40337 whole entry, looked up): as the sequence (P40337 whole entry, looked up) above
Target sequence in this assay (Q8TEK3 whole entry, looked up): as the sequence (Q8TEK3 whole entry, looked up) above
The target is the same in series [5]. In words: PROTAC activity at VHL/DOT1L in mixed-lineage leukemia rearranged (MLL-r) human MV4-11 cells assessed as induction of DOTIL degradation by measuring fold change in DOT1L protein level at 3 uM incubated for 1 hr by western blot analysis relative to control. The format is cell-based.
Target sequence in this assay (P40337 whole entry, looked up): as the sequence (P40337 whole entry, looked up) above
Target sequence in this assay (Q8TEK3 whole entry, looked up): as the sequence (Q8TEK3 whole entry, looked up) above
For series [6] the target is unchanged. The series is described as follows: PROTAC activity at VHL/DOT1L in mixed-lineage leukemia rearranged (MLL-r) human MV4-11 cells assessed as induction of DOTIL degradation by measuring fold change in H3K79Me2 level at 3 uM incubated for 24 hrs by western blot analysis relative to control. The format is cell-based.
Target sequence in this assay (P40337 whole entry, looked up): as the sequence (P40337 whole entry, looked up) above
Target sequence in this assay (Q8TEK3 whole entry, looked up): as the sequence (Q8TEK3 whole entry, looked up) above
Series [7] has the same target. In words: PROTAC activity at VHL/DOT1L in mixed-lineage leukemia rearranged (MLL-r) human THP-1 cells assessed as induction of DOT1L degradation at 3 uM co-incubated with VHL ligand for 24 hrs by western blot analysis. The format is cell-based.
Target sequence in this assay (P40337 whole entry, looked up): as the sequence (P40337 whole entry, looked up) above
Target sequence in this assay (Q8TEK3 whole entry, looked up): as the sequence (Q8TEK3 whole entry, looked up) above
The subject of series [8] is MV4-11. In words: Effect on DOTIL mRNA expression in mixed-lineage leukemia rearranged (MLL-r) human MV4-11 cells at 3 uM incubated for 24 hrs by RT-qPCR analysis. The format is functional, cell-based. For orientation: Quantitative PCR measures a nucleic acid by following its amplification.
The target in series [9] is Protein arginine N-methyltransferase 6 (Homo sapiens) (UniProt Q96LA8). In words: Inhibition of PRMT6 (unknown origin) at 10 uM by radiometric methyltransferase assay.
Sequence of Protein arginine N-methyltransferase 6 (Homo sapiens) (Q96LA8 whole entry, looked up): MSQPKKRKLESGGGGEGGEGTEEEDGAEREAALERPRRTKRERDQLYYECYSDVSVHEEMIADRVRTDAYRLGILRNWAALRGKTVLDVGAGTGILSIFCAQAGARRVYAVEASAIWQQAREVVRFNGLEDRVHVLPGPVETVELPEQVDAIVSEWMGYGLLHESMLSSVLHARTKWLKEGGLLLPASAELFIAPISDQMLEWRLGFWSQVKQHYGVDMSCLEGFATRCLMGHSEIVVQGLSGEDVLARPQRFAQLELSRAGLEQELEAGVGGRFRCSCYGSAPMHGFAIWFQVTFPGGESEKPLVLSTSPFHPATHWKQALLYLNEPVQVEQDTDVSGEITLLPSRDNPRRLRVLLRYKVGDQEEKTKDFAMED
Series [10] concerns PNT2. The series is described as follows: Cytotoxicity against human PNT2 cells assessed as inhibition of cell growth incubated for 7 days by CCK-8 assay. In kind it is toxicity, cell-based. Particulars: pnt2, 168 h, time 7 day. In general terms: Tetrazolium dyes change colour on reduction, which living cells bring about.

The source made the active and inactive calls. The rule behind the calls is not given here.

As for `Cc1ncsc1-c1ccc([C@H](CC(=O)NCCCCCCNC(=O)COc2nc(N)nc(Nc3cc(S(N)(=O)=O)ccc3N[C@@H](c3cccc4c3OC(F)(F)O4)c3ncccc3Cl)n2)NC(=O)[C@@H]2C[C@@H](O)CN2C(=O)[C@@H](NC(=O)C2(F)CC2)C(C)(C)C)cc1`, the Activity entry is “Dose-dependent-effect” in series [1], 93% in series [2] and “Non-toxic” in series [10]. Also, the DC50 in [1] was 25 nM. Also, the fold change (FC) in series [3] was determined as 0.29; in series [4] it was 0.99; in series [5], 1.26; in series [6], 0.17. Besides, the result in series [7] and in [8] was inactive. For the same molecule, in series [9], the inhibition entry was “inactive”.
